From PubChem BioAssay (NCI)
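Dose response: 5 concentrations. Exposure: 48 h. Format: 96-well plates. Endpoint: linear interpolation; highest concentration if not reached. GI50 is the concentration that inhibits growth by half. TGI: total growth inhibition.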

Legend:
Assay in all cases: inhibition of tumour cell growth, NCI panel, 48 h
[1] = system: HOP-92 NSCLC
[2] = system: UACC-257 melanoma
[3] = system: MDA-MB-468 breast
[4] = system: SK-OV-3 ovarian
[5] = system: SW-620 colon
[6] = system: MDA-MB-435
[7] = system: MCF7 breast
[8] = system: SF-295 CNS
[9] = system: MALME-3M melanoma
[10] = system: DU-145 prostate
[11] = system: NCI-H226 lung
[12] = system: M14 melanoma
[13] = system: A549 NSCLC
[14] = system: SK-MEL-5 melanoma
[15] = system: IGROV1 ovarian
[16] = system: HOP-62 NSCLC
[17] = system: CCRF-CEM leukemia
[18] = system: CAKI-1 renal
[19] = system: SF-539 CNS
[20] = system: SK-MEL-2 melanoma
[21] = system: A498 renal
[22] = system: MDA-MB-231 breast
[23] = system: OVCAR-3 ovarian
[24] = system: SF-268 CNS
[25] = system: HL-60(TB) leukemia
[26] = system: HCC-2998 colon
[27] = system: KM12 colon
[28] = system: PC-3 prostate
[29] = system: SNB-19 CNS
[30] = system: OVCAR-8 ovarian
[31] = system: UO-31 renal
[32] = system: NCI-H522 lung
[33] = system: 786-0 renal
[34] = system: OVCAR-5 ovarian
[35] = system: TK-10 renal
[36] = system: LOX IMVI melanoma
[37] = system: HT29 colon
[38] = system: RPMI-8226 leukemia
[39] = system: MOLT-4 leukemia
[40] = system: OVCAR-4 ovarian
[41] = system: HS 578T breast
[42] = system: ACHN renal
[43] = system: HCT-15 colon
[44] = system: UACC-62 melanoma
[45] = system: NCI-H23 lung
[46] = system: RXF 393 renal
[47] = system: NCI/ADR-RES ovarian
[48] = system: SK-MEL-28 melanoma
[49] = system: EKVX NSCLC
[50] = system: K-562 leukemia
[51] = system: BT-549 breast
[52] = system: T-47D breast
[53] = system: SNB-75 CNS
[54] = system: U251 CNS
[55] = system: COLO 205 colon
[56] = system: SN12C renal
[57] = system: NCI-H460 lung
[58] = system: HCT-116 colon

Compound `CN1CCCN(Cc2ccc(C(=O)Nc3cccc(Nc4ccc5c(O)cccc5n4)c3)cc2C(F)(F)F)CC1` has a GI50 [1] of 1.64 µM, a TGI [1] of 4.41 µM and a GI50 [2] of 1.6 µM. For the same compound, the TGI [2] was 3.2 µM, the GI50 [3] was 1.66 µM and the TGI [3] was 3.13 µM. For the same compound, the GI50 [4] was 11.1 µM, the TGI [4] was 27.1 µM and the GI50 [5] was 1.95 µM. It also gave a TGI [5] of 3.44 µM, a GI50 [6] of 1.78 µM and a TGI [6] of 3.6 µM. The GI50 [7] was 1.68 µM, the TGI [7] was 3.2 µM and the GI50 [8] was 1.67 µM. For the same compound, the TGI [8] was 3.07 µM, the GI50 [9] was 1.7 µM and the TGI [9] was 3.14 µM. It also gave a GI50 [10] of 3.27 µM, a TGI [10] of 10.1 µM and a GI50 [11] of 16.7 µM. The TGI [11] was 46.8 µM, the GI50 [12] was 1.89 µM and the TGI [12] was 4.49 µM. The GI50 [13] was 3.63 µM, the TGI [13] was 15.1 µM and the GI50 [14] was 1.72 µM. It also gave a TGI [14] of 3.09 µM, a GI50 [15] of 2.56 µM and a TGI [15] of 6.88 µM. The GI50 [16] was 2.03 µM, the TGI [16] was 4.58 µM and the GI50 [17] was 2.07 µM. It also gave a TGI [17] greater than 100 µM, a GI50 [18] of 1.8 µM and a TGI [18] of 3.94 µM. It also gave a GI50 [19] of 1.7 µM, a TGI [19] of 3.12 µM and a GI50 [20] of 1.81 µM. It also gave a TGI [20] of 3.46 µM, a GI50 [21] of 15.3 µM and a TGI [21] of 29 µM. It also gave a GI50 [22] of 1.65 µM, a TGI [22] of 3.18 µM and a GI50 [23] of 1.97 µM. The TGI [23] was 4.41 µM, the GI50 [24] was 2.14 µM and the TGI [24] was 5.24 µM. For the same compound, the GI50 [25] was 2.35 µM, the TGI [25] was 5.52 µM and the GI50 [26] was 1.8 µM. It also gave a TGI [26] of 3.19 µM, a GI50 [27] of 1.98 µM and a TGI [27] of 3.99 µM. The GI50 [28] was 1.87 µM, the TGI [28] was 5.73 µM and the GI50 [29] was 2.03 µM. It also gave a TGI [29] of 3.91 µM, a GI50 [30] of 2.51 µM and a TGI [30] of 6.22 µM. The GI50 [31] was 2.04 µM, the TGI [31] was 4.96 µM and the GI50 [32] was 1.84 µM. For the same compound, the TGI [32] was 3.51 µM, the GI50 [33] was 2.06 µM and the TGI [33] was 3.8 µM. For the same compound, the GI50 [34] was 11.4 µM, the TGI [34] was 23.9 µM and the GI50 [35] was 2.8 µM. The TGI [35] was 8.95 µM, the GI50 [36] was 1.63 µM and the TGI [36] was 2.99 µM. The GI50 [37] was 1.92 µM, the TGI [37] was 3.76 µM and the GI50 [38] was 2.89 µM. For the same compound, the TGI [38] was 9.36 µM, the GI50 [39] was 2.11 µM and the TGI [39] was 6.94 µM. It also gave a GI50 [40] of 3.83 µM, a TGI [40] of 15.4 µM and a GI50 [41] of 1.93 µM. For the same compound, the TGI [41] was 4.85 µM, the GI50 [42] was 1.92 µM and the TGI [42] was 3.74 µM. It also gave a GI50 [43] of 1.93 µM, a TGI [43] of 4.04 µM and a GI50 [44] of 1.69 µM. The TGI [44] was 3.13 µM, the GI50 [45] was 1.78 µM and the TGI [45] was 3.31 µM. It also gave a GI50 [46] of 1.85 µM, a TGI [46] of 3.71 µM and a GI50 [47] of 6.43 µM. The TGI [47] was 68.5 µM, the GI50 [48] was 1.82 µM and the TGI [48] was 3.27 µM. For the same compound, the GI50 [49] was 1.82 µM, the TGI [49] was 3.5 µM and the GI50 [50] was 2.18 µM. The TGI [50] was greater than 100 µM, the GI50 [51] was 1.8 µM and the TGI [51] was 3.28 µM. For the same compound, the GI50 [52] was 3.46 µM, the TGI [52] was 13.3 µM and the GI50 [53] was 1.32 µM. For the same compound, the TGI [53] was 7.46 µM.

For `O=C(c1ccc(OCCN2CCOCC2)cc1)C1[C@H](c2ccc(Cl)cc2)[C@@H](c2ccccc2)NC12C(=O)Nc1ccc(Br)cc12` (some centres not stated), the GI50 [1] was 2.35 µM, the TGI [1] was 6.69 µM and the GI50 [2] was 3.69 µM. It also gave a TGI [2] of 13 µM, a GI50 [3] of 2.83 µM and a TGI [3] of 7.65 µM. It also gave a GI50 [4] of 4.46 µM, a TGI [4] greater than 16.3 µM and a GI50 [5] of 2.78 µM. It also gave a TGI [5] of 5.68 µM, a GI50 [6] of 3.17 µM and a TGI [6] of 7.28 µM. For the same compound, the GI50 [54] was 2.6 µM, the TGI [54] was 5.52 µM and the GI50 [7] was 2.92 µM. For the same compound, the TGI [7] was 10.2 µM, the GI50 [8] was 2.4 µM and the TGI [8] was 4.94 µM. It also gave a GI50 [9] of 2.39 µM, a TGI [9] of 5.09 µM and a GI50 [55] of 2.52 µM. For the same compound, the TGI [55] was 4.93 µM, the GI50 [10] was 3.91 µM and the TGI [10] was 11.8 µM. For the same compound, the GI50 [11] was 2.94 µM, the TGI [11] was 7.82 µM and the GI50 [12] was 2.56 µM. It also gave a TGI [12] of 5.44 µM, a GI50 [13] of 4.27 µM and a TGI [13] greater than 16.3 µM. It also gave a GI50 [14] of 2.69 µM, a TGI [14] of 5.11 µM and a GI50 [15] of 3.32 µM. For the same compound, the TGI [15] was 9.74 µM, the GI50 [16] was 2.83 µM and the TGI [16] was 6.58 µM. The GI50 [17] was 4.42 µM, the TGI [17] was 12.8 µM and the GI50 [18] was 3 µM. For the same compound, the TGI [18] was greater than 16.3 µM, the GI50 [19] was 2.73 µM and the TGI [19] was 5.19 µM. For the same compound, the GI50 [20] was 2.32 µM, the TGI [20] was 4.8 µM and the GI50 [21] was 3.05 µM. The TGI [21] was 7.55 µM, the GI50 [22] was 2.66 µM and the TGI [22] was 5.09 µM. For the same compound, the GI50 [23] was 2.56 µM, the TGI [23] was 6.91 µM and the GI50 [24] was 3.66 µM. For the same compound, the TGI [24] was greater than 16.3 µM, the GI50 [25] was 4.2 µM and the TGI [25] was 12 µM. The GI50 [26] was 2.61 µM, the TGI [26] was 5.37 µM and the GI50 [27] was 2.98 µM. The TGI [27] was 7.26 µM, the GI50 [28] was 2.96 µM and the TGI [28] was 9.34 µM. It also gave a GI50 [29] of 4.46 µM, a TGI [29] greater than 16.3 µM and a GI50 [30] of 4.37 µM. The TGI [30] was greater than 16.3 µM, the GI50 [31] was 2.57 µM and the TGI [31] was 7.86 µM. The GI50 [32] was 3.39 µM, the TGI [32] was 8.58 µM and the GI50 [33] was 2.95 µM. For the same compound, the TGI [33] was 6.69 µM, the GI50 [34] was 2.95 µM and the TGI [34] was 9.56 µM. For the same compound, the GI50 [35] was 3.62 µM, the TGI [35] was 11.1 µM and the GI50 [36] was 2.43 µM. For the same compound, the TGI [36] was 4.59 µM, the GI50 [37] was 2.49 µM and the TGI [37] was 5.38 µM. The GI50 [38] was 4.05 µM, the TGI [38] was 16.1 µM and the GI50 [39] was 2.9 µM. The TGI [39] was 10.2 µM, the GI50 [40] was 4.33 µM and the TGI [40] was greater than 16.3 µM. The GI50 [41] was 2.58 µM, the TGI [41] was 7.19 µM and the GI50 [56] was 2.35 µM. It also gave a TGI [56] of 4.53 µM, a GI50 [42] of 3.84 µM and a TGI [42] of 14.3 µM. It also gave a GI50 [43] of 2.69 µM, a TGI [43] of 6.23 µM and a GI50 [44] of 2.22 µM. For the same compound, the TGI [44] was 4.46 µM, the GI50 [45] was 2.87 µM and the TGI [45] was 6.76 µM. It also gave a GI50 [46] of 1.84 µM, a TGI [46] of 4.57 µM and a GI50 [47] of 3.87 µM. For the same compound, the TGI [47] was 12.1 µM, the GI50 [57] was 2.8 µM and the TGI [57] was 5.59 µM. For the same compound, the GI50 [48] was 2.7 µM, the TGI [48] was 5.08 µM and the GI50 [49] was 2.71 µM. The TGI [49] was 11.2 µM, the GI50 [50] was 3.87 µM and the TGI [50] was greater than 16.3 µM. It also gave a GI50 [51] of 3.44 µM, a TGI [51] of 8.33 µM and a GI50 [52] of 3.09 µM. For the same compound, the TGI [52] was greater than 16.3 µM, the GI50 [58] was 2.63 µM and the TGI [58] was 5.45 µM. It also gave a GI50 [53] of 2.37 µM and a TGI [53] greater than 16.3 µM.
